The values below come from the OligoGym collection.

Where “and” joins values, the source holds several entries; their conditions need not be identical. Equal entries are not always repeated. After the bases stand the sugars from the 5' end (letter, count) and the backbone: PS all phosphorothioate, else s phosphorothioate and o phosphodiester by linkage. Methylation of C is not given here. e = 2'-O-(2-methoxyethyl) (MOE); k = constrained ethyl (cEt); d = 2'-deoxy (DNA)

For one series, the target named is MALAT1. The following applies: ASO, A431, 0.005 µM.
The next series concerns the target IRF4. The following applies: ASO.

For TCAAGTCAAGCTCCTG (sugars k3 d10 k3, PS), the target mRNA inhibition with MALAT1 is 3%. For the sequence CCACTGGTGAATTCAA (sugars k3 d10 k3, PS), in the series with MALAT1, the target mRNA inhibition was 55%.

As for AATATTTGCCCCTCCC (sugars k3 d10 k3, PS), the target mRNA inhibition with MALAT1 amounted to 15%. In the case of CCCCCCAAGATTGCCC (sugars k3 d10 k3, PS), the target mRNA inhibition with MALAT1 was found to be 14%.

Consider CACCTTCCGCCGCCTT (sugars k3 d10 k3, PS), for which, in the series with MALAT1, the target mRNA inhibition is -25%. On the same count and under the same terms, next, ACGGGTCATCAAACAC (sugars k3 d10 k3, PS): 14%; ACTTAAATTACTAGCG (sugars k3 d10 k3, PS): -10%.

Take GGCCAAGTCTGTTATG (sugars k3 d10 k3, PS): the target mRNA inhibition with MALAT1 is -1%.

Turning to TACACCTCAGTACGAA (sugars k3 d10 k3, PS), the target mRNA inhibition with MALAT1 is 28%. Still for that read-out and setting: next, TCCTTATTTAGAGGGC (sugars k3 d10 k3, PS): 29%; ACATTCAAGCTGAACT (sugars k3 d10 k3, PS): -5%. Same read-out and setting: next, ACTTATCAATTCACCA (sugars k3 d10 k3, PS): 28%; ATATTGTGCTGTTACC (sugars k3 d10 k3, PS): -9%; ATGGTAGATTCCGTAA (sugars k3 d10 k3, PS): 14%. Same read-out and setting: next, ACCTTTTACTCTGATC (sugars k3 d10 k3, PS): 34%; GCATCAAGGCACTGAT (sugars k3 d10 k3, PS): 35%; TACTTAAATTACTAGC (sugars k3 d10 k3, PS): 28%. Take ATTGGAGATCAGCTTC (sugars k3 d10 k3, PS): in the series with MALAT1, the target mRNA inhibition is 52%. In the case of CAAGTTACATGTTCCC (sugars k3 d10 k3, PS), in the series with MALAT1, the target mRNA inhibition was 42%. Regarding TCTAACATAGTTCAAC (sugars k3 d10 k3, PS), in the series with MALAT1, the target mRNA inhibition was 29%.

On to GGGTACTTCAAGCATT (sugars k3 d10 k3, PS), for which, in the series with MALAT1, the target mRNA inhibition worked out at 43%.

Consider CATTAAAGAGTGTTCG (sugars k3 d10 k3, PS), for which the target mRNA inhibition with MALAT1 is 34%. Consider TACGAAAGTCCTTCAC (sugars k3 d10 k3, PS), for which the target mRNA inhibition with MALAT1 is 35%.

TCCCATCACTGAAGCC (sugars k3 d10 k3, PS): the target mRNA inhibition with MALAT1 was found to be 44%. As for AAAAACTTATCTGCGG (sugars k3 d10 k3, PS), in the series with MALAT1, the target mRNA inhibition is 49%. Same read-out and setting: next, TCTCCCACCTGTCTAA (sugars k3 d10 k3, PS): 23%; TCGCCTCCTCCGTGTG (sugars k3 d10 k3, PS): 33%. Still for that read-out and setting: next, TAACCAACTTCCCCTT (sugars k3 d10 k3, PS): 16%; GCCCCAGTCCTTTACA (sugars k3 d10 k3, PS): 3%; ATCCCATCACTGAAGC (sugars k3 d10 k3, PS): 36%. Regarding CCGGAACTTTTAAAAT (sugars k3 d10 k3, PS), the target mRNA inhibition with MALAT1 is 13%. Take TTATATTAGGTTCTCG (sugars k3 d10 k3, PS): in the series with MALAT1, the target mRNA inhibition is -6%. Consider TTATACTGTCTGGTTA (sugars k3 d10 k3, PS), for which the target mRNA inhibition in the series with IRF4 (SK-MEL-28, 4 µM) was 44%.

With “AATGTGTATTACTCTT (sugars kkddddddddddkeke, PS)”, the target mRNA inhibition with IRF4 (MM.1R, 1 µM) was 8% and 22%. On the same count and under the same terms, next, CAGGAGAGCCCCTACC (sugars k3 d10 k3, PS): -8%.

Take AGTAACTTGACTTGAG (sugars k3 d10 k3, PS): the target mRNA inhibition with IRF4 (MM.1R, 1 µM) was -3%. Same read-out and setting: next, GCCCGGCCGGGCCTTC (sugars k3 d10 k3, PS): -4%. In the case of TTGAAAGATTCAGCCT (sugars k3 d10 k3, PS), in the series with IRF4 (SK-MEL-28, 4 µM), the target mRNA inhibition amounted to 3%. On the same count and under the same terms, next, CTGGACAGCCAAACAA (sugars k3 d10 k3, PS): 21%.

On to GTTCAGTGTGTTGACC (sugars k3 d10 k3, PS), for which the target mRNA inhibition in the series with IRF4 (MM.1R, 1 µM) amounted to 30%. Regarding TATATGACGACTTAAG (sugars k3 d10 k3, PS), in the series with IRF4 (SK-MEL-28, 4 µM), the target mRNA inhibition worked out at 30%. The same measure, in the same setting: next, ACTAACTGGCTTCCAG (sugars k3 d10 k3, PS): 31%.

ACAAAAACTTGGGTCA (sugars k3 d10 k3, PS): in the series with IRF4 (MM.1R, 1 µM), the target mRNA inhibition was -13%. Regarding CGCAATTCTCCTCAAC (sugars k3 d10 k3, PS), the target mRNA inhibition with IRF4 (SK-MEL-28, 4 µM) was 38%. Same read-out and setting: next, CACGGACGAACGCGCA (sugars k3 d10 k3, PS): -2%. In the case of GGGTTAAATATTCTTC (sugars k3 d10 k3, PS), in the series with IRF4 (SK-MEL-28, 4 µM), the target mRNA inhibition is 52%.

Regarding TAAACAAGATGAATCC (sugars k3 d10 k3, PS), in the series with IRF4 (SK-MEL-28, 4 µM), the target mRNA inhibition came to 44%. Still for that read-out and setting: next, TACCTACAAGCAGTCA (sugars k3 d10 k3, PS): 56%. CCGCTCAACCAGTTCC (sugars k3 d10 k3, PS): the target mRNA inhibition with IRF4 (MM.1R, 1 µM) was -12%. Still for that read-out and setting: next, “CAGTGATGTCAGGTTT (sugars kkddddddddddkeke, PS)”: 41%. ATCAATGATGGCAGTC (sugars k3 d10 k3, PS): the target mRNA inhibition with IRF4 (SK-MEL-28, 4 µM) came out at 57%. Take “CTGTTACCGATGCTTC (sugars kdddddddddkekeke, PS)”: in the series with IRF4 (MM.1R, 1 µM), the target mRNA inhibition is 2% and 24%. In the case of TAAGAGGCGACTGCTG (sugars k3 d10 k3, PS), in the series with IRF4 (SK-MEL-28, 4 µM), the target mRNA inhibition was -45%. Regarding CATATACATTGAGGCA (sugars k3 d10 k3, PS), the target mRNA inhibition with IRF4 (MM.1R, 1 µM) was 20%.

As for “TAGTATGAGAAACGGC (sugars kkdddddddddekeke, PS)”, the target mRNA inhibition with IRF4 (MM.1R, 1 µM) was 50%. CCAATTTATGCCATGG (sugars k3 d10 k3, PS): the target mRNA inhibition in the series with IRF4 (SK-MEL-28, 4 µM) is 12%. Still for that read-out and setting: next, AGCCCCTCAGGAAATG (sugars k3 d10 k3, PS): 24%.

Turning to ACCCACATCACTGTCT (sugars k3 d10 k3, PS), in the series with IRF4 (SK-MEL-28, 4 µM), the target mRNA inhibition stood at 15%. ACAAAACGGACTGGAA (sugars k3 d10 k3, PS): the target mRNA inhibition with IRF4 (SK-MEL-28, 4 µM) came out at 14%. TCCACCCTCCGTCTCA (sugars k3 d10 k3, PS): in the series with IRF4 (MM.1R, 1 µM), the target mRNA inhibition was -9%.

As to “CGTGTGCTTGCCAAGC (sugars kkddddddddddkeke, PS)”, in the series with IRF4 (MM.1R, 1 µM), the target mRNA inhibition is 55% and 45%. As to ACTGCTGTGTGTCAAA (sugars k4 d8 k4, PS), the target mRNA inhibition in the series with IRF4 (SK-MEL-28, 4 µM) came to 19%. On to “AGTGATGTCAGGTTTT (sugars e1 k2 d9 k2 e2, PS)”, for which the target mRNA inhibition with IRF4 (MM.1R, 1 µM) came to 39%. For the sequence CTCACTATTAAACAGC (sugars k3 d10 k3, PS), in the series with IRF4 (SK-MEL-28, 4 µM), the target mRNA inhibition was determined as 24%. As to “AGTGACTTGCATCCAT (sugars kkdddddddddekeke, PS)”, the target mRNA inhibition with IRF4 (MM.1R, 1 µM) is 34%. As to AGTCATCACTCTAGTC (sugars k3 d10 k3, PS), the target mRNA inhibition with IRF4 (SK-MEL-28, 4 µM) is 53%. Turning to CAAAACGCAGAGCCAG (sugars k3 d10 k3, PS), the target mRNA inhibition with IRF4 (SK-MEL-28, 4 µM) worked out at 58%.

Consider ACAAATTAAAGAGCGC (sugars k3 d10 k3, PS), for which the target mRNA inhibition with IRF4 (SK-MEL-28, 4 µM) amounted to 64%. Turning to “CTCTATAGTGTTCCAG (sugars k2 d9 e3 k2, PS)”, the target mRNA inhibition with IRF4 (MM.1R, 1 µM) turned out to be 48%.

Consider CAAATGACTTAGTCAG (sugars k3 d10 k3, PS), for which the target mRNA inhibition with IRF4 (SK-MEL-28, 4 µM) was determined as 55%. Still for that read-out and setting: next, CTAAAGGAGTGCAGGA (sugars k3 d10 k3, PS): 6%. Regarding GATAGATCTGTGGTAA (sugars k3 d10 k3, PS), the target mRNA inhibition in the series with IRF4 (MM.1R, 1 µM) came to 22%.

In the case of GCCCATGAGTTGAAAG (sugars k3 d10 k3, PS), the target mRNA inhibition in the series with IRF4 (SK-MEL-28, 4 µM) was 32%. On the same count and under the same terms, next, TACTTAAGCAAGTGGA (sugars k3 d10 k3, PS): 75% and 71%; CAATAAAATGTCACGC (sugars k3 d10 k3, PS): 47%. As to CTTCACTGTTAGCTAC (sugars k3 d10 k3, PS), the target mRNA inhibition in the series with IRF4 (SK-MEL-28, 4 µM) amounted to 51%. On to “TTGATGTGATAGCTGA (sugars kddddddddddkekek, PS)”, for which the target mRNA inhibition with IRF4 (MM.1R, 1 µM) turned out to be 12%. Turning to CGCATAGAGCCCGTCG (sugars k3 d10 k3, PS), the target mRNA inhibition in the series with IRF4 (SK-MEL-28, 4 µM) came to 53%. Turning to TCACGAAACACAGTCT (sugars k3 d10 k3, PS), the target mRNA inhibition with IRF4 (SK-MEL-28, 4 µM) is 68%. On to “TAGTATGAGAAACGGC (sugars kddddddddddkekek, PS)”, for which the target mRNA inhibition with IRF4 (MM.1R, 1 µM) was 24%.

With CCGGGTTCCTCCACCC (sugars k3 d10 k3, PS), the target mRNA inhibition in the series with IRF4 (SK-MEL-28, 4 µM) is 9%. With “GGAAGTTTACACTGGA (sugars kkkddddddddkekek, PS)”, in the series with IRF4 (MM.1R, 1 µM), the target mRNA inhibition came to 43%. In the case of CAAAGCAAGTGTCTAA (sugars k3 d10 k3, PS), the target mRNA inhibition in the series with IRF4 (SK-MEL-28, 4 µM) worked out at 23%. The same measure, in the same setting: next, TGGTTCTCTATAGTGT (sugars k3 d10 k3, PS): 71%; CTCCACTACCATATTG (sugars k3 d10 k3, PS): 1%. The same measure, in the same setting: next, GCCAAGGACACCACCT (sugars k3 d10 k3, PS): -2%.

With “TGTTACCGATGCTTCA (sugars kkdddddddddkdkdk, PS)”, in the series with IRF4 (MM.1R, 1 µM), the target mRNA inhibition was 35% and 26%. Consider GTAGGACAGACAAAAA (sugars k3 d10 k3, PS), for which the target mRNA inhibition with IRF4 (SK-MEL-28, 4 µM) was determined as 23%. Consider CACGAGGTTGCCGAGA (sugars k3 d10 k3, PS), for which the target mRNA inhibition with IRF4 (MM.1R, 0.0625 µM) is -3%; with IRF4 (MM.1R, 0.074 µM) it was 4%; with IRF4 (MM.1R, 0.222 µM), 7%; with IRF4 (MM.1R, 0.25 µM), 9%; with IRF4 (MM.1R, 0.666 µM), 22%; with IRF4 (MM.1R, 1 µM), 48%. Moreover, the target mRNA inhibition with IRF4 (MM.1R, 2 µM) is 34%; in the series with IRF4 (MM.1R, 4 µM) it was 62%; with IRF4 (SK-MEL-28, 4 µM) it was 64%.

For CAGTAAGAGGGCAGTC (sugars k3 d10 k3, PS), the target mRNA inhibition in the series with IRF4 (SK-MEL-28, 4 µM) turned out to be 50%. With CTTCAACAGCACTGTC (sugars k3 d10 k3, PS), the target mRNA inhibition with IRF4 (SK-MEL-28, 4 µM) is 56%. Same read-out and setting: next, CAAGATCGAGCGGTGA (sugars k3 d10 k3, PS): 38%.
